Test: xn = mol fraction of the nth substance listed, in the solute-free solvent

CC(=O)NC(CCC(N)=O)C(=O)O (stereo not drawn) + O + CCO
solubility (g/100 g solution)
Settings	293.15 K	298.15 K	303.15 K	308.15 K	313.15 K	318.15 K
x2 = 0.2647	0.629	0.869	0.998	1.29	1.49	1.75
x2 = 0.4475	1.45	1.76	2.23	2.56	2.78	3.17
x2 = 0.7641	3.01	3.62	4.93	6.04	7.27	8.61
x2 = 0.8293	2.93	3.69	4.49	5.32	6.47	7.52
x2 = 0.9284	3.11	3.48	4.31	5.04	6.17	7.23

CC(=O)OC(c1ccccc1)C(Cl)(Cl)Cl (stereo not drawn) + CCO + O
solubility (g/100 g solution)
Settings	288.15 K	293.15 K	298.15 K	303.15 K	308.15 K	313.15 K	318.15 K	323.15 K	328.15 K
x2 = 0.4	0.237	0.492	0.787	1.3	1.94	2.85	3.79	4.63	5.65
x2 = 0.5	0.569	0.744	1.1	1.98	2.72	3.4	4.43	6.17	8.15
x2 = 0.6	1.11	1.43	1.77	3.24	4.3	5.43	7.34	9.98	13.9
x2 = 0.7	1.91	2.46	3	4.64	6.14	7.47	9.86	13.2	18
x2 = 0.8	2.52	3.05	4.06	6.07	7.63	9.55	12.1	16.4	21.2
x2 = 0.9	3.42	4.13	5.46	7.3	9.27	11.8	15.2	20	26.4

COC1=CC(=O)CC(C)C12Oc1c(Cl)c(OC)cc(OC)c1C2=O (stereo not drawn) + CC(C)=O + CC(C)O
solubility (g/100 g solution)
Settings	283.15 K	288.15 K	293.15 K	298.15 K	303.15 K	308.15 K	313.15 K	318.15 K	323.15 K
x2 = 0.1	0.176	0.236	0.261	0.31	0.375	0.463	0.602	0.688	0.843
x2 = 0.2	0.338	0.422	0.511	0.55	0.668	0.817	0.967	1.11	1.3
x2 = 0.3	0.587	0.663	0.787	0.871	1.04	1.22	1.41	1.64	1.96
x2 = 0.4	0.84	0.915	1.06	1.23	1.44	1.7	1.94	2.17	2.51
x2 = 0.5	1.23	1.4	1.5	1.62	1.85	2.16	2.51	2.8	3.19
x2 = 0.6	1.56	1.76	1.94	2.08	2.34	2.72	3.08	3.41	3.89
x2 = 0.7	1.81	2.09	2.35	2.55	2.87	3.3	3.65	4.05	4.58
x2 = 0.8	2.16	2.39	2.72	2.95	3.38	3.76	4.19	4.67	5.21
x2 = 0.9	2.56	2.71	3.08	3.33	3.78	4.3	4.68	5.15	5.53

Oc1ccc(Cl)c2cccnc12 + C1COCCO1 + CCO
solubility (g/100 g solution)
Settings	278.15 K	283.15 K	288.15 K	293.15 K	298.15 K	303.15 K	308.15 K	313.15 K	318.15 K	323.15 K
x2 = 0.1156	2.02	2.27	2.73	3.17	3.66	4.34	5.1	5.96	7.04	8.35
x2 = 0.2585	3.35	3.86	4.46	5.19	6.15	7.28	8.38	9.82	11.4	13.3
x2 = 0.4396	4.92	5.68	6.53	7.56	8.72	10.3	11.9	13.8	15.9	18.2
x2 = 0.6765	6.81	7.83	8.96	10.3	11.8	13.8	15.8	17.9	20.5	23.3

CC(=O)OC(c1ccccc1)C(Cl)(Cl)Cl (stereo not drawn) + CC(C)O + O
solubility (g/100 g solution)
Settings	288.15 K	293.15 K	298.15 K	303.15 K	308.15 K	313.15 K	318.15 K	323.15 K	328.15 K
x2 = 0.3	0.121	0.305	0.695	1.28	1.93	2.84	3.53	4.2	4.91
x2 = 0.4	0.68	1.07	1.66	2.53	3.38	4.59	5.99	7.89	10.2
x2 = 0.5	1.44	1.92	2.68	3.57	4.9	6.25	8.62	11.3	15.3
x2 = 0.6	2.16	2.57	3.54	4.68	6.23	7.88	10.9	14.7	19.1
x2 = 0.7	2.5	3.03	4.15	5.52	7.14	9.44	12.2	16.8	21.4
x2 = 0.8	2.69	3.35	4.57	6.3	7.95	10.4	13.8	18.5	23.5
x2 = 0.9	2.86	3.67	5.1	6.71	8.39	10.9	14.4	19.4	25.3

Reference: the CheMixHub drug solubility set
